Measurements: the NIST ThermoML archive (doi:10.1021/je500237g)
± gives the expanded uncertainty stated by the source.

Tests used:
[1] = Liquid; for mass density: 293.15 K, 101.33 kPa, Vibrating tube method; for vapor or sublimation pressure: Ebulliometric method (Recirculating still)
[2] = refractive index (Na D-line) (dimensionless); details: 293.15 K; 101.33 kPa; Liquid; Standard Abbe refractometry

## CC(C)CO [2-methyl-1-propanol]
[1]
  mass density: 802.7 ± 0.8 kg/m3
[1]; 357.6 K
  vapor or sublimation pressure: 40 ± 0.2 kPa
[2]
  refractive index: 1.3954 ± 0.0007

## CCCCCCCCCCCC [dodecane]
[1]
  mass density: 750 ± 0.8 kg/m3
[1]; 453.7 K
  vapor or sublimation pressure: 40 ± 0.2 kPa
[2]
  refractive index: 1.4218 ± 0.0007

## CCCCO [butan-1-ol]
[1]
  mass density: 810.4 ± 0.8 kg/m3
[1]; 367.1 K
  vapor or sublimation pressure: 40 ± 0.2 kPa
[2]
  refractive index: 1.3992 ± 0.0007

## CCCO [propan-1-ol]
[1]
  mass density: 804.9 ± 0.8 kg/m3
[1]; 346.5 K
  vapor or sublimation pressure: 40 ± 0.2 kPa
[2]
  refractive index: 1.3851 ± 0.0007
